From US20250195498A1, “INHIBITOR OF CELLULAR PURINE NUCLEOTIDE SALVAGE PATHWAY ENZYME FOR USE IN THE TREATMENT AND/OR PREVENTION OF HELICOBACTER PYLORI INFECTION AND/OR DISEASE ASSOCIATED WITH SUCH INFECTION AND PHARMACEUTICAL COMPOSITION COMPRISING THE SAME” (UNIWERSYTET WARSZAWSKI, priority 2022, published 2025)
Converted amounts (≈) assume the structure as drawn. “And” between values parts separate entries of the source, which are not always exact repeats. Equal values may be shown once. Read-outs that look alike come from different tables or passages of the source.

What was measured:
[1] = biological target: T1, PNP from H. pylori strain 26695 (Helicobacter pylori, UniProt P56463); assay: Inhibition of PNP from H. pylori, spectrophotometric phosphorolysis assay; assay type: biochemical
T1 construct: made in house; host or cells: E. coli
T1 sequence (P56463 whole entry): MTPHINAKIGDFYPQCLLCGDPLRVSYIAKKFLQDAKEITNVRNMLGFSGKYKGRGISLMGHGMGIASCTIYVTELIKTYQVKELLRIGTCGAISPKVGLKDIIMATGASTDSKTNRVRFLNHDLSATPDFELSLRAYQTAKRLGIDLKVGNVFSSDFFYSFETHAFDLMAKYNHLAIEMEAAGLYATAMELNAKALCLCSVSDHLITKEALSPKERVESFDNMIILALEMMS
Excerpt: The specific activity of PNP is usually determined using inosine as a substrate, in an assay in which the phosphorolysis product, hypoxanthine, is oxidized to uric acid in a reaction catalysed by xanthine oxidase. However, in the inhibition assay of PNP from H. pylori strain 26695, 7-methylguanosine (m^7Guo) and guanosine (Guo) were used as nucleoside substrates to avoid potential inhibition of xanthine oxidase by the test compounds. Phosphorolysis of these two substrates can be observed using a direct spectrophotometric method in a known manner.
Enzymatic activity was studied in a quartz cuvette with an optical path length of 1 cm or 0.5 cm. The absorbance of the reaction mixture, at the observation wavelength, never exceeded 1.2. The reaction volume was 1 ml or 1.4 ml in cuvettes with optical path lengths of 1 cm and 0.5 cm, respectively. The reaction mixture contained 50 mM Hepes/NaOH buffer, pH 7.0, 50 mM phosphate buffer, pH 7.0 (unless otherwise indicated), nucleoside substrate and inhibitor (with the latter not added to the reference/control reactions). Reactions were usually initiated by adding the enzyme to a cuvette containing the other reaction components. However, in cases where possible slow formation of an inhibitor-enzyme complex was checked, a second variant was also used involving incubation of the enzyme in a reaction mixture containing the inhibitor but lacking the substrate, 7-methylguanosine, and initiation of the reaction by adding this substrate.
In order to determine the inhibition constants and determine the molecular mechanism of inhibition, equations describing different mechanisms of inhibition were fitted to the obtained experimental data. GraphPad Prism 8 program was used. The model best describing the obtained data was selected based on the sum of squares of deviations using the F test for models with different number of parameters and the Akaike criterion (AIC) for models with the same number of parameters.
The following equations were used to describe competitive inhibition, characterized by the inhibition constant Kic, [1], uncompetitive, characterized by the inhibition constant Kiu, [2], non-competitive, characterized by the inhibition constant Kin, [3], and mixed, characterized by the inhibition constants Kiu and Kic, [4] (Segel, 1993):
The last equation can also be represented in the following form, as used by GraphPad Prism software, where Kiu=alpha Kic:
Immucillin A was chosen as the most promising one for potential pharmacological use in combating H. pylori infection because immucillin A has an amino substituent at position 6 of the 9-dazapurine ring, while PNP found in the human body requires a substituent at this position having electron-pairs-hydrogen bond acceptors, such as a substituent in the form of a keto group, to strongly bind the ligand. According to the invention, it is therefore believed that immucillin A will not interact with the host PNP, and thus allow selective inhibition of the PNP from H. pylori. Using the methods described above, the effect of immucillin A on the rate of the 7-methylguanosine (m^7Guo) phosphorolysis reaction catalysed by PNP from H. pylori was examined (FIG. 1). Since it is known (Schramm, 2018) that immucillins form a strongly bound complex with the enzyme relatively slowly, reactions were initiated by adding the substrate, m^7Guo, to a cuvette in which the enzyme was incubated with the inhibitor, as described in Example 1.
Data analysis was also performed as described in this Example. The range of substrate concentrations tested was 10-200 μM or 10-280 μM (shown in FIG. 4), and the range of inhibitor concentrations was chosen according to the observed degree of inhibition of the reaction, in order to obtain a significant degree of inhibition that allows determination of the inhibition mechanism and determination of inhibition constants (see FIG. 4). […]

H. pylori strain 26695 = assay: Growth curve method / MIC in liquid culture, strain 26695; assay type: cell-based, Helicobacter pylori; conditions: strain 26695; for growth inhibition: 200 μM, partially precipitated; for % inhibition of H. pylori cell cultures at maximum inhibitor solubility: at maximum solubility in 3.5% DMSO; for MIC: read-out: MIC
Description: (§1) The representative PNP inhibitor from H. pylori included in this study was immucillin A. The experiment was conducted using the growth curve method (two-fold serial dilutions in liquid medium). The tested H. pylori strains were cultured in Petri dishes with BHI solid medium supplemented with 10% FBS and 1% H. pylori Selective Supplement antibiotic kit, in anaerostats under microaerophilic conditions (5% 02, 10% CO2, 85% N2) at 37° C. for 3 days. Liquid culture of H. pylori was conducted overnight with shaking at 37° C. under microaerophilic conditions in BHI medium supplemented with 10% FBS and 1% H. pylori Selective Supplement antibiotic kit. Subsequently, for the essential experiment of determining the minimum inhibitory concentration (MIC), double strengthened liquid BHI medium was prepared, that is, supplemented with 20% FBS and a 2% set of H. pylori Selective Supplement antibiotics.
(§2) Bacterial proliferation inhibition experiments were carried out in 24-deep-well 2 ml flat-bottomed plates at a solution volume per well of 0.5 ml. In a single well, double strengthened (relative to the concentration planned for testing) solutions of the test inhibitor and double strengthened liquid BHI medium inoculated with H. pylori (10^4-10^5 CFU/ml in the final volume in the well, corresponding to the optical density of the culture OD600=0.05) were mixed together in a 1:1 ratio.
(§3) Kanamycin at a concentration of 25 μg/ml (Irie et al., 1997) was used as a positive control, while Mili-Q deionized water and BHI medium not inoculated with bacteria were used as negative controls. Plates were shaken at 37° C., under microaerophilic conditions. […] After 24 hours, the OD600 of samples containing the negative control, i.e. with Mili-Q deionized water, was about 1.2-1.4, corresponding to a bacterial concentration of about […].
(§4) In addition, the method proposed by Knezevic et al. (2018) was used to check whether the observed OD600 was from live bacterial cells. For this purpose, an equal volume of Christensen's double strength urea broth (that is, containing twice the concentration of all components) was added to the wells after incubation, and the plates were additionally incubated for 4 hours in an oxygen atmosphere at 37° C. During incubation, in wells with urease produced by live bacteria, urea is converted to ammonia and carbon dioxide, changing the pH of the solution and thus the colour of the phenol red indicator contained in the medium (from orange to purple).
(§5) All experiments were performed in triplicate.
The experiments were carried out using the growth curve method as described in Example 3, and the results obtained for two of the compounds tested are shown in FIG. 5. As the water solubility of the compounds tested, with the exception of 2,6-diCl-Pu, is relatively poor, two experiments were carried out: the first with the maximum concentration possible under the experimental conditions in aqueous solution with a small admixture of DMSO, and the second with higher concentrations that led to partial precipitation of the compound.
The antibacterial activity of two compounds, mefloquine (in the form of hydrochloride) and quinine, described in the literature as potent in vitro inhibitors of the PNP enzyme from Plasmodium falciparum (Dziekan et al., 2019), was tested. Using a two-fold serial dilution method in liquid medium (as described in Example 3), the MIC values for mefloquine and quinine were determined against clinical H. pylori strains resistant to MTZ, CLR and MTZ+CLR (M26, M91, M92 and M93), as well as the reference H. pylori strain 26695. Four clinical H. pylori strains isolated from adults, from primary infections (the subjects had never previously been treated against H. pylori infection) were tested. These strains come from the collection of the Department of Microbiology of the Medical University of Wroclaw and were obtained due to collaboration with Prof. Grażyna Gościniak, MD, PhD. […]

[2] = test system: H. pylori strain M91 (MTZ + CLR resistant); assay: Growth curve method / MIC, resistant strain M91; assay type: cell-based, Helicobacter pylori; conditions: strain M91, MTZ + CLR resistant
Description: as §1, §2, §3, §4, §5
(§6) The antibacterial activity of two compounds, mefloquine (in the form of hydrochloride) and quinine, described in the literature as potent in vitro inhibitors of the PNP enzyme from Plasmodium falciparum (Dziekan et al., 2019), was tested. Using a two-fold serial dilution method in liquid medium (as described in Example 3), the MIC values for mefloquine and quinine were determined against clinical H. pylori strains resistant to MTZ, CLR and MTZ+CLR (M26, M91, M92 and M93), as well as the reference H. pylori strain 26695. Four clinical H. pylori strains isolated from adults, from primary infections (the subjects had never previously been treated against H. pylori infection) were tested. These strains come from the collection of the Department of Microbiology of the Medical University of Wroclaw and were obtained due to collaboration with Prof. Grażyna Gościniak, MD, PhD. The tested compounds belong to organic substances and are soluble in DMSO. The maximum tested concentration of quinine in H. pylori culture was 0.56 mM, and that of mefloquine was 2.25 mM. […] On each occasion, the effect of DMSO alone on the growth of the H. pylori strains tested was also checked. […] Kanamycin was used as a positive control and Mili-Q deionised water as a negative control. All experiments were carried out in triplicate. […]

[3] = test system: H. pylori strain M93 (MTZ resistant); assay: Growth curve method / MIC, resistant strain M93; assay type: cell-based, Helicobacter pylori; conditions: strain M93, MTZ resistant
Description: as §1, §2, §3, §4, §5, §6

[4] = test system: H. pylori strain M26 (MTZ + CLR resistant); assay: Growth curve method / MIC, resistant strain M26; assay type: cell-based, Helicobacter pylori; conditions: strain M26, MTZ + CLR resistant
Description: as §1, §2, §3, §4, §5, §6

[5] = test system: H. pylori strain M92 (CLR resistant); assay: Growth curve method / MIC, resistant strain M92; assay type: cell-based, Helicobacter pylori; conditions: strain M92, CLR resistant
Description: as §1, §2, §3, §4, §5, §6

[6] = Helicobacter pylori, read-out: MIC
[7] = listed as Mefloquine (hydrochloride)
[8] = listed as Mefloquine (hydrochloride), read-out: MIC

SMILES: OC[C@H]1O[C@@H](n2cnc3c(SCc4ccccc4)nc(Cl)nc32)C[C@@H]1O [6BnS-2Cl-Pu-9dr, 2-chloro-6-benzylthiopurine-2′-deoxy-9-ribofuranoside]
- Ki ([1]; 7-methylguanosine substrate, 25° C., pH 7.0, 50 mM phosphate, mixed type model, read-out: Kic): 6200 ± 2400 nM
- Ki ([1]; 7-methylguanosine substrate, 25° C., pH 7.0, 50 mM phosphate, mixed type model, read-out: Kiu): 2900 ± 500 nM
- alpha = Kiu/Kic ([1]; 7-methylguanosine substrate, mixed type model): 0.47 ± 0.24
- alpha = Kiu/Kic ([1]; guanosine as a substrate, mixed type model): 0.16 ± 0.08
- Ki ([1]; guanosine as a substrate, mixed type model, read-out: Kic): 12600 ± 5700 nM
- Ki ([1]; guanosine as a substrate, mixed type model, read-out: Kiu): 2000 ± 200 nM
- growth inhibition (H. pylori strain 26695): complete growth inhibition
- % inhibition of H. pylori cell cultures at maximum inhibitor solubility (H. pylori strain 26695): 5%

SMILES: c1ccc(CSc2ncnc3nc[nH]c23)cc1 [6BnS-Pu, 6-benzylthiopurine]
- MIC (H. pylori strain 26695; Helicobacter pylori, inhibitor partially precipitated, actual dissolved concentration lower): 48 µg/mL and 200 µM
- growth inhibition (H. pylori strain 26695): Complete inhibition
- % inhibition of H. pylori cell cultures at maximum inhibitor solubility (H. pylori strain 26695): 83%

SMILES: NC[C@H]1O[C@H](O[C@H]2[C@H](O)[C@@H](O[C@H]3O[C@H](CO)[C@@H](O)[C@H](N)[C@H]3O)[C@H](N)C[C@@H]2N)[C@H](O)[C@@H](O)[C@@H]1O [Kanamycin, kanamycin]
- inhibition at 52 µM (H. pylori strain 26695; Helicobacter pylori, kanamycin 25 μg/ml (52 μM), positive control, read-out: % inhibition of H. pylori cell cultures): 92 to 96%

SMILES: Nc1ncnc2c([C@@H]3N[C@H](CO)C(O)[C@@H]3O)c[nH]c12 (stereo partly drawn) [immucillin A]
- Ki [1]: 1.3 ± 0.2 nM
- MIC (H. pylori strain 26695; Helicobacter pylori): 80 µM (≈ 21.2 µg/mL)

SMILES: OC(c1cc(C(F)(F)F)nc2c(C(F)(F)F)cccc12)C1CCCCN1 (stereo not drawn) [mefloquine]
- MIC [2, 6]: 50 µM and 21 µg/mL
- MIC [2, 7]: (21 μg/ml)
- MIC [2, 8]: 50 µM
- MIC [3, 6]: 35 µM and 14.5 µg/mL
- MIC [3, 7]: (14.5 μg/ml)
- MIC [3, 8]: 35 µM (≈ 13.2 µg/mL)
- MIC [4, 6]: 35 µM and 14.5 µg/mL
- MIC [4, 7]: (14.5 μg/ml)
- MIC [4, 8]: 35 µM
- MIC (H. pylori strain 26695; Helicobacter pylori): 50 µM and 21 µg/mL
- MIC [5, 6]: 40 µM and 17 µg/mL
- MIC [5, 7]: (17 μg/ml)
- MIC [5, 8]: 40 µM (≈ 15.1 µg/mL)
